What was measured:
Details in all cases: 48 h
SEM cells [1] = experiment: cell viability relative to DMSO control; higher = less cytotoxic
Method in brief: (§1)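 Cells were incubated for 48 h at 37°C before CellTiter-Glo One luminescence was read. The cells were NOMO1 or SEM (500 cells/well) or P12-Ichikawa (1000 cells/well) leukemia cells, adapted for at least four passages in each medium and seeded in 1536-well plates (5 μl). Dosing used library compounds in DMSO applied by pin over 11 threefold points, 47 μM to 0.79 nM. Viability is the per-plate percentage of DMSO wells, with cell-free wells as background.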

NOMO1 [2] = experiment: as above
Method in brief: as §1

P12-Ichikawa [3] = experiment: as above
Method in brief: as §1

SEM cells [4] = experiment: AUC of viability dose-response curve (% viability x log10 dose units); higher = less sensitive
Method in brief: (§2)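 Leukemia cells adapted to each medium were seeded in 1536-well plates (500 or 1000 cells/well). They were dosed with library compounds in DMSO at 11 threefold doses, 47 μM to 0.79 nM, for 48 h at 37°C. CellTiter-Glo One luminescence was normalised per plate to DMSO and cell-free wells. Area under the curve was integrated by trapezoidal rule over log10 doses on a four-parameter log-logistic fit; curves exceeding full viability were scaled and curves failing quality control removed.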

NOMO1 [5] = experiment: as above
Method in brief: as §2

P12-Ichikawa [6] = experiment: as above
Method in brief: as §2

CNC(=O)c1ccc2cc(C3(O)CCn4cncc43)ccc2c1 (stereo not drawn)
cell viability [%]
Details	NOMO1 [2]	P12-Ichikawa [3]	SEM cells [1]
HPLM + 10% dialyzed FBS, 0.000781 µM	124	123	128
HPLM + 10% dialyzed FBS, 0.00234 µM	131	127	119
HPLM + 10% dialyzed FBS, 0.00702 µM	121	115	103
HPLM + 10% dialyzed FBS, 0.0211 µM	127	115	125
HPLM + 10% dialyzed FBS, 0.0632 µM	143	119	125
HPLM + 10% dialyzed FBS, 0.19 µM	118	123	113
HPLM + 10% dialyzed FBS, 0.569 µM	126	102	108
HPLM + 10% dialyzed FBS, 1.71 µM	137	102	107
HPLM + 10% dialyzed FBS, 5.12 µM	113	108	106
HPLM + 10% dialyzed FBS, 15.4 µM	98.1	108	123
HPLM + 10% dialyzed FBS, 46.1 µM	112	114	107
RPMI 5 mM glucose + 10% FBS, 0.000781 µM	105	123	–
RPMI 5 mM glucose + 10% FBS, 0.00234 µM	117	127	–
RPMI 5 mM glucose + 10% FBS, 0.00702 µM	103	119	–
RPMI 5 mM glucose + 10% FBS, 0.0211 µM	120	127	–
RPMI 5 mM glucose + 10% FBS, 0.0632 µM	110	131	–
RPMI 5 mM glucose + 10% FBS, 0.19 µM	96.8	125	–
RPMI 5 mM glucose + 10% FBS, 0.569 µM	102	129	–
RPMI 5 mM glucose + 10% FBS, 1.71 µM	96.8	122	–
RPMI 5 mM glucose + 10% FBS, 5.12 µM	108	111	–
RPMI 5 mM glucose + 10% FBS, 15.4 µM	99.7	133	–
RPMI 5 mM glucose + 10% FBS, 46.1 µM	114	110	–
RPMI 5 mM glucose + 10% dialyzed FBS, 0.000781 µM	–	126	–
RPMI 5 mM glucose + 10% dialyzed FBS, 0.00234 µM	–	117	–
RPMI 5 mM glucose + 10% dialyzed FBS, 0.00702 µM	–	121	–
RPMI 5 mM glucose + 10% dialyzed FBS, 0.0211 µM	–	125	–
RPMI 5 mM glucose + 10% dialyzed FBS, 0.0632 µM	–	118	–
RPMI 5 mM glucose + 10% dialyzed FBS, 0.19 µM	–	120	–
RPMI 5 mM glucose + 10% dialyzed FBS, 0.569 µM	–	110	–
RPMI 5 mM glucose + 10% dialyzed FBS, 1.71 µM	–	117	–
RPMI 5 mM glucose + 10% dialyzed FBS, 5.12 µM	–	107	–
RPMI 5 mM glucose + 10% dialyzed FBS, 15.4 µM	–	118	–
RPMI 5 mM glucose + 10% dialyzed FBS, 46.1 µM	–	105	–

AUC of viability dose-response curve
Details	NOMO1 [5]	P12-Ichikawa [6]	SEM cells [4]
HPLM + 10% dialyzed FBS	458	453	441
RPMI 5 mM glucose + 10% FBS	456	469	450
RPMI 5 mM glucose + 10% dialyzed FBS	456	453	452

CN[C@H]1CCC2=CC(=C(OC)C(=C2C/3=C/C=C(OC)\C(=O)/C=C13)OC)OC
cell viability [%]
Details	NOMO1 [2]	P12-Ichikawa [3]	SEM cells [1]
HPLM + 10% dialyzed FBS, 0.000781 µM	119	107	108
HPLM + 10% dialyzed FBS, 0.00234 µM	96	113	102
HPLM + 10% dialyzed FBS, 0.00702 µM	75.2	104	64.8
HPLM + 10% dialyzed FBS, 0.0211 µM	30.1	12.9	23
HPLM + 10% dialyzed FBS, 0.0632 µM	32.9	19.9	24.1
HPLM + 10% dialyzed FBS, 0.19 µM	38.4	11.1	28.6
HPLM + 10% dialyzed FBS, 0.569 µM	43.5	11.2	23.3
HPLM + 10% dialyzed FBS, 1.71 µM	40.9	8.53	18.4
HPLM + 10% dialyzed FBS, 5.12 µM	31.4	9.25	13.4
HPLM + 10% dialyzed FBS, 15.4 µM	33.9	7.37	12
HPLM + 10% dialyzed FBS, 46.1 µM	25.8	3.31	4.23
RPMI 5 mM glucose + 10% FBS, 0.000781 µM	120	113	123
RPMI 5 mM glucose + 10% FBS, 0.00234 µM	109	118	122
RPMI 5 mM glucose + 10% FBS, 0.00702 µM	90.7	102	85
RPMI 5 mM glucose + 10% FBS, 0.0211 µM	22.8	15.9	16.8
RPMI 5 mM glucose + 10% FBS, 0.0632 µM	22.3	22.2	20.8
RPMI 5 mM glucose + 10% FBS, 0.19 µM	24.5	13.3	21.6
RPMI 5 mM glucose + 10% FBS, 0.569 µM	25.4	9.95	18
RPMI 5 mM glucose + 10% FBS, 1.71 µM	22.4	9.19	14.3
RPMI 5 mM glucose + 10% FBS, 5.12 µM	21.1	7.3	9.18
RPMI 5 mM glucose + 10% FBS, 15.4 µM	17.1	6.54	7.14
RPMI 5 mM glucose + 10% FBS, 46.1 µM	10.4	2.29	2.84
RPMI 5 mM glucose + 10% dialyzed FBS, 0.000781 µM	108	119	97.1
RPMI 5 mM glucose + 10% dialyzed FBS, 0.00234 µM	97.1	118	88.9
RPMI 5 mM glucose + 10% dialyzed FBS, 0.00702 µM	102	102	62.8
RPMI 5 mM glucose + 10% dialyzed FBS, 0.0211 µM	23.5	21.1	17.8
RPMI 5 mM glucose + 10% dialyzed FBS, 0.0632 µM	31.9	33.4	21.4
RPMI 5 mM glucose + 10% dialyzed FBS, 0.19 µM	28.3	19	23.9
RPMI 5 mM glucose + 10% dialyzed FBS, 0.569 µM	27.9	15.6	20.4
RPMI 5 mM glucose + 10% dialyzed FBS, 1.71 µM	28.7	11.3	12.6
RPMI 5 mM glucose + 10% dialyzed FBS, 5.12 µM	23.1	9.48	9.12
RPMI 5 mM glucose + 10% dialyzed FBS, 15.4 µM	21.9	8.81	7.84
RPMI 5 mM glucose + 10% dialyzed FBS, 46.1 µM	14.3	4.1	3.33

AUC of viability dose-response curve
Details	NOMO1 [5]	P12-Ichikawa [6]	SEM cells [4]
HPLM + 10% dialyzed FBS	205	151	159
RPMI 5 mM glucose + 10% FBS	174	147	144
RPMI 5 mM glucose + 10% dialyzed FBS	206	158	148
